Patent US9676766B2, “Triazolopyridines” (BAYER INTELLECTUAL PROPERTY GMBH, priority 2009, dated 2017)

Target: T1, human kinase Mps-1 (Homo sapiens, UniProt P33981)
T1 construct: N-terminally GST-tagged human full length recombinant Mps-1 kinase; purchased Invitrogen, Karslruhe, Germany PV4071
T1 sequence (P33981 1-857): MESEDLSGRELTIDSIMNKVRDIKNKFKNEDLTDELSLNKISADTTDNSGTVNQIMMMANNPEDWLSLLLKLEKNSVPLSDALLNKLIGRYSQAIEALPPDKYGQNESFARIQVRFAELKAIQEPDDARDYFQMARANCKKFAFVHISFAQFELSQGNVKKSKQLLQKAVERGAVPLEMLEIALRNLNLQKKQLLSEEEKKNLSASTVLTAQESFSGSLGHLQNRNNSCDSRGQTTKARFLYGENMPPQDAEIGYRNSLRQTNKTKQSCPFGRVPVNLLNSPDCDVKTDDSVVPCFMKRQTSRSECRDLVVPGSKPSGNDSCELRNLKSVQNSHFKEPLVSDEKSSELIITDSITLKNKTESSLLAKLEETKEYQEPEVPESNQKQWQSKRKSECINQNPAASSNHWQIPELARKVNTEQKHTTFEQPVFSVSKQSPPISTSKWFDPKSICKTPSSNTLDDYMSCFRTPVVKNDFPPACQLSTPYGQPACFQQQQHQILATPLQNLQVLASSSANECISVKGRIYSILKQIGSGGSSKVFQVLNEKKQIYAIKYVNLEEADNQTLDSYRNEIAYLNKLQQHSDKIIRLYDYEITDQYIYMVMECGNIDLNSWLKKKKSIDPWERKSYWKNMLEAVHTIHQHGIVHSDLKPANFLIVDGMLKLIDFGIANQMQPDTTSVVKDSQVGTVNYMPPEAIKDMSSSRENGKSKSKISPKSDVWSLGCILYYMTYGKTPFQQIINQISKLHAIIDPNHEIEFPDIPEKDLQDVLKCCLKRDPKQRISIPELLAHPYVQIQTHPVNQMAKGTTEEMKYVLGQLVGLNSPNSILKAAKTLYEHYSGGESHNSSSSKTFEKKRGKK
Test: Mps-1 Kinase Assay (TR-FRET)
Assay type: biochemical
Conditions: N-terminally GST-tagged human full length recombinant Mps-1; 10 μM ATP; 1 μM biotinylated peptide substrate; 60 min at 22° C.; read-out: MPS1 Inhibition, IC50 in M

Point of comparison: `COc1ccccc1Nc1nc2ccc(-c3cccc(NC(=O)Nc4cccnc4)c3)cn2n1` [Example 8.12, 1-(3-{2-[(2-methoxyphenyl)amino][1,2,4]triazolo[1,5-a]pyridin-6-yl}phenyl)-3-pyridin-3-ylurea], IC50 270 nM. Against it:
- COc1ccccc1Nc1nc2ccc(-c3cccc(NC(=O)NC4CC4)c3)cn2n1 [Example 8.9, 1-cyclopropyl-3-(3-{2-[(2-methoxyphenyl)amino][1,2,4]triazolo[1,5-a]pyridin-6-yl}phenyl)urea] — 3.2-fold lower, 84 nM
- COc1ccccc1Nc1nc2ccc(-c3cccc(NC(=O)N4CCOCC4)c3)cn2n1 [Example 8.10, N-(3-{2-[(2-methoxyphenyl)amino][1,2,4]triazolo[1,5-a]pyridin-6-yl}phenyl)morpholine-4-carboxamide] — 2.7-fold lower, 100 nM
- COc1ccccc1Nc1nc2ccc(-c3cccc(NC(=O)N4CCC(N(C)C)CC4)c3)cn2n1 [Example 8.11, 4-(dimethylamino)-N-(3-{2-[(2-methoxyphenyl)amino][1,2,4]triazolo[1,5-a]pyridin-6-yl}phenyl)piperidine-1-carboxamide] — 2.4-fold higher, 640 nM
- COc1ccccc1Nc1nc2ccc(-c3cccc(NC(=O)NCCN4CCOCC4)c3)cn2n1 [Example 8.13, 1-(3-{2-[(2-methoxyphenyl)amino][1,2,4]triazolo[1,5-a]pyridin-6-yl}phenyl)-3-[2-(morpholin-4-yl)ethyl]urea] — 1.7-fold higher, 470 nM
- COc1ccccc1Nc1nc2ccc(-c3cccc(NC(=O)Nc4ccncc4)c3)cn2n1 [Example 8.14, 1-(3-{2-[(2-methoxyphenyl)amino][1,2,4]triazolo[1,5-a]pyridin-6-yl}phenyl)-3-pyridin-4-ylurea] — 2.4-fold higher, 660 nM
- CN1CCN(C(=O)c2cccc(-c3ccc4nc(Nc5ccccc5C#N)nn4c3)c2)CC1 [Example 9.1, 2-[(6-{3-[(4-methylpiperazin-1-yl)carbonyl]phenyl}[1,2,4]triazolo[1,5-a]pyridin-2-yl)amino]benzonitrile] — 4.6-fold lower, 59 nM
- N#Cc1ccccc1Nc1nc2ccc(-c3cccc(C(=O)NC4CCCC4)c3)cn2n1 [Example 9.2, 3-{2-[(2-cyanophenyl)amino][1,2,4]triazolo[1,5-a]pyridin-6-yl}-N-cyclopentylbenzamide] — 93-fold lower, 2.9 nM
- CN1CCC(NC(=O)c2cccc(-c3ccc4nc(Nc5ccccc5C#N)nn4c3)c2)CC1 [Example 9.3, 3-{2-[(2-cyanophenyl)amino][1,2,4]triazolo[1,5-a]pyridin-6-yl}-N-(1-methylpiperidin-4-yl)benzamide] — 3.6-fold lower, 74 nM
- N#Cc1ccccc1Nc1nc2ccc(-c3cccc(C(=O)NCc4ccccc4)c3)cn2n1 [Example 9.4, N-benzyl-3-{2-[(2-cyanophenyl)amino][1,2,4]triazolo[1,5-a]pyridin-6-yl}benzamide] — 13-fold lower, 21 nM
- N#Cc1ccccc1Nc1nc2ccc(-c3cccc(C(=O)NC4CC4)c3)cn2n1 [Example 9.5, 3-{2-[(2-cyanophenyl)amino][1,2,4]triazolo[1,5-a]pyridin-6-yl}-N-cyclopropylbenzamide] — 61-fold lower, 4.4 nM
- COc1ccccc1Nc1nc2ccc(-c3cccc(C(=O)NC4CC4)c3)cn2n1 [Example 10.1, N-cyclopropyl-3-{2-[(2-methoxyphenyl)amino][1,2,4]triazolo[1,5-a]pyridin-6-yl}benzamide] — 42-fold lower, 6.5 nM
- COc1ccccc1Nc1nc2ccc(-c3cccc(C(=O)NCc4ccccc4)c3)cn2n1 [Example 10.2, N-benzyl-3-{2-[(2-methoxyphenyl)amino][1,2,4]triazolo[1,5-a]pyridin-6-yl}benzamide] — 6-fold lower, 45 nM
